Consider 24 compounds from ChEMBL document CHEMBL5608141, “Identification of compartment-specific drug sensitivities in CRC organoid-stroma co-cultures” (2024).

Holding throughout (type): functional, Homo sapiens
Design in all cases: dose or concentration left out as unconfirmed

The subject of test [1] is Colon cancer organoid. In words: Identification of compartment-specific drug sensitivities in O14 CRC organoid-stroma F14 CAF co-cultures. Organoid is transduced with Lucferase2-P2A-EGFP lentivirus, fibroblast with Renilla-dsRed lentivirus. Dual-Glo Luciferase assay is used to report viability data.
The subject of test [2] is Colon cancer organoid. In words: Identification of compartment-specific drug sensitivities in O06 CRC organoid-stroma F06 CAF co-cultures. Organoid is transduced with Lucferase2-P2A-EGFP lentivirus, fibroblast with Renilla-dsRed lentivirus. Dual-Glo Luciferase assay is used to report viability data.
Test [3] concerns Colon cancer organoid. In words: Identification of compartment-specific drug sensitivities in O20 CRC organoid-stroma F20 CAF co-cultures. Organoid is transduced with Lucferase2-P2A-EGFP lentivirus, fibroblast with Renilla-dsRed lentivirus. Dual-Glo Luciferase assay is used to report viability data.
Setting [4] is: Transduced with Lucferase2-P2A-EGFP lentivirus.
Where [5] appears, read: Transduced with Renilla-dsRed lentivirus.

The structures appear in SMILES notation. Non-standard residues stand in square brackets, D forms with d. Residues, ends and D or L forms follow the SMILES beside them. Arg(Me) = CNC(=N)NCCC[C@H](N)C(=O)O; d4Pal = N[C@H](Cc1ccncc1)C(=O)O; azaGly = NNC(=O)O

As to `Cl.Cl.Cl.c1ccc(N2CCN(Cc3nc4ccccc4[nH]3)CC2)nc1`, the “Cell Viability” value turned out to be 99.1029% in test [1] (setting [4]); 116.587% in test [1] (setting [5]); 46.7197% in test [2] (setting [4]); 192.419% in test [2] (setting [5]); 41.4322% in test [3] (setting [4]); 124.541% in test [3] (setting [5]).

On to `C[C@H](c1ccc(F)cc1)N(Cc1cccc(C(=O)O)c1)C(=O)c1cnc2ccccc2c1` [PF-05105679], for which the “Cell Viability” value in test [1] (setting [4]) is on record as 130.3%; in test [1] (setting [5]), 106.537%; in test [2] (setting [4]), 130.848%; in test [2] (setting [5]) it was 113.872%; in test [3] (setting [4]), 143.937%; in test [3] (setting [5]), 111.508%.

As to `Cc1cc2c(-c3ccco3)cnc(N[C@@H]3CCN(C)C[C@H]3C(=O)NC3CCCCC3)c2[nH]c1=O` [GSK789], the “Cell Viability” value stood at 52.4382% in test [1] (setting [4]); 127.289% in test [1] (setting [5]); 76.5976% in test [2] (setting [4]); 134.369% in test [2] (setting [5]); 34.1492% in test [3] (setting [4]); 125.83% in test [3] (setting [5]).

Turning to `CC1(C)C(N)=Nc2cc(OCCCCN3Cc4ccc(OCc5cn(CC(=O)N6CCC(CCN7CCCC7)CC6)nn5)cc4C3)c(OCC3CC3)cc21`, the “Cell Viability” value in test [1] (setting [4]) was determined as 112.762%; in test [1] (setting [5]), 94.6071%; in test [2] (setting [4]), 65.2251%; in test [2] (setting [5]) it was 114.368%; in test [3] (setting [4]), 70.7317%; in test [3] (setting [5]) it was 125.652%.

In the case of `CO[C@H]1CNC[C@@H](OCC2CCC(F)(F)CC2)[C@@H]1Nc1ncc(-c2cncc(C)c2)c2cc(C)c(=O)[nH]c12`, the “Cell Viability” value is given as 145.9% in test [1] (setting [4]); 102.552% in test [1] (setting [5]); 95.0954% in test [2] (setting [4]); 138.476% in test [2] (setting [5]); 171.771% in test [3] (setting [4]); 122.949% in test [3] (setting [5]).

Turning to `C[C@H](NC(=O)c1cnc2n1[C@](C)(Cc1ccc(C#N)cc1)C(=O)N2c1cc(Cl)c(F)c(Cl)c1)C(=O)NC1(c2ccccn2)CC1` [BI 1950], the “Cell Viability” value in test [1] (setting [4]) is reported as 98.1816%; in test [1] (setting [5]), 100.374%; in test [2] (setting [4]), 112.036%; in test [2] (setting [5]), 408.477%; in test [3] (setting [4]) it was 121.807%; in test [3] (setting [5]) it was 97.0159%.

`COc1nc2ccc([C@@](O)(c3ccccc3)C3CCN(C(C)=O)CC3)cc2c(Cl)c1Cc1ccc(-n2cccn2)cc1` [JNJ-54119936]: the “Cell Viability” value in test [1] (setting [4]) was 99.4009%; in test [1] (setting [5]), 84.202%; in test [2] (setting [4]) it was 97.0001%; in test [2] (setting [5]) it was 121.742%; in test [3] (setting [4]), 65.101%; in test [3] (setting [5]), 118.395%.

As for `CCc1cc2cc(NS(=O)(=O)c3ccc(C#N)cc3)ccc2n(CC)c1=O`, the “Cell Viability” value in test [1] (setting [4]) was found to be 120.494%; in test [1] (setting [5]), 98.1699%; in test [2] (setting [4]), 88.2132%; in test [2] (setting [5]), 102.933%; in test [3] (setting [4]), 196.577%; in test [3] (setting [5]), 99.0217%.

In the case of `CC[C@@H]1C(=O)N(C)c2cnc(Nc3ccc(C(=O)NC4CCN(C)CC4)cc3OC)nc2N1C1CCCC1` [BI-2536], the “Cell Viability” value in test [1] (setting [4]) was found to be 2.9466%; in test [1] (setting [5]), 167.188%; in test [2] (setting [4]), 3.341%; in test [2] (setting [5]) it was 324.743%; in test [3] (setting [4]), 3.721%; in test [3] (setting [5]), 168.723%.

For the compound `Cc1nc(C2CCN(C(=O)c3ccc(OC(F)(F)F)cc3N)CC2)c2ncc(N3CCN(C)CC3)cc2n1` [BAY-693], the “Cell Viability” value is 77.0919% in test [1] (setting [4]); 74.1942% in test [1] (setting [5]); 114.208% in test [2] (setting [4]); 166.908% in test [2] (setting [5]); 93.6142% in test [3] (setting [4]); 129.276% in test [3] (setting [5]).

Consider `COCC(=O)NC/C=C/c1ccc2ncnc(Nc3ccc(Oc4ccc(C)nc4)c(C)c3)c2c1` [CP-724714], for which the “Cell Viability” value turned out to be 105.334% in test [1] (setting [4]); 107.19% in test [1] (setting [5]); 64.178% in test [2] (setting [4]); 58.1065% in test [2] (setting [5]); 97.2693% in test [3] (setting [4]); 94.0282% in test [3] (setting [5]).

Consider `Cc1cc(CN)cc(C)c1-c1ncn(C)c1-c1cncn1C`, for which the “Cell Viability” value in test [1] (setting [4]) was 88.8994%; in test [1] (setting [5]) it was 94.9152%; in test [2] (setting [4]), 121.461%; in test [2] (setting [5]), 141.638%; in test [3] (setting [4]), 127.793%; in test [3] (setting [5]), 117.48%.

For the compound `CC(C)(O)CNc1ncc(-c2ccnc(Nc3ccnc(Cl)c3)n2)c(CC2CC2)n1`, the “Cell Viability” value is given as 84.1319% in test [1] (setting [4]); 170.669% in test [1] (setting [5]); 30.6205% in test [2] (setting [4]); 168.017% in test [2] (setting [5]); 67.8279% in test [3] (setting [4]); 172.835% in test [3] (setting [5]).

For `O=C(NOCC1CC1)c1ccc(F)c(F)c1Nc1ccc(I)cc1Cl` [CI-1040], the “Cell Viability” value in test [1] (setting [4]) was 35.7635%; in test [1] (setting [5]), 62.5859%; in test [2] (setting [4]), 38.2974%; in test [2] (setting [5]), 73.8424%; in test [3] (setting [4]), 44.1491%; in test [3] (setting [5]), 195.336%.

With `CNCCN1CCC(c2cc(CN(C)C(=O)c3cccc(Oc4ccccc4)c3)ccn2)CC1`, the “Cell Viability” value was determined as 146.315% in test [1] (setting [4]); 111.036% in test [1] (setting [5]); 83.6812% in test [2] (setting [4]); 129.007% in test [2] (setting [5]); 67.5507% in test [3] (setting [4]); 133.473% in test [3] (setting [5]).

As to `CN(C)C(=O)Cn1cc(-c2ccc(-c3nnc4ccccn34)cc2)cn1`, the “Cell Viability” value worked out at 99.1399% in test [1] (setting [4]); 78.8551% in test [1] (setting [5]); 105.212% in test [2] (setting [4]); 110.192% in test [2] (setting [5]); 167.784% in test [3] (setting [4]); 52.6743% in test [3] (setting [5]).

In the case of `Cc1cnc(Nc2ccc(F)cc2Cl)nc1-c1c[nH]c(C(=O)N[C@H](CO)c2cccc(Cl)c2)c1`, the “Cell Viability” value in test [1] (setting [4]) was found to be 47.0783%; in test [1] (setting [5]), 28.0153%; in test [2] (setting [4]), 51.8597%; in test [2] (setting [5]), 63.6391%; in test [3] (setting [4]), 6.88%; in test [3] (setting [5]), 113.857%.

On to `CCNC(=O)c1cc2c(-c3cc(C(C)(C)O)ccc3Oc3c(C)cc(F)cc3C)cn(C)c(=O)c2[nH]1` [ABBV-744], for which the “Cell Viability” value was 77.9517% in test [1] (setting [4]); 194.681% in test [1] (setting [5]); 91.6049% in test [2] (setting [4]); 287.135% in test [2] (setting [5]); 58.4777% in test [3] (setting [4]); 215.224% in test [3] (setting [5]).

Consider `Cl.O=C(O)c1cc(-c2ccc(C3CCNCC3)cc2)c2ccc(-c3ccc(C(F)(F)F)cc3)cc2c1`, for which the “Cell Viability” value amounted to 158.935% in test [1] (setting [4]); 99.9399% in test [1] (setting [5]); 107.895% in test [2] (setting [4]); 117.47% in test [2] (setting [5]); 106.654% in test [3] (setting [4]); 101.384% in test [3] (setting [5]).

With `Cn1cc(-c2ccc3occ(-c4cccc(-c5ccncc5)c4)c3n2)cn1`, the “Cell Viability” value in test [1] (setting [4]) is given as 87.0505%; in test [1] (setting [5]), 83.2978%; in test [2] (setting [4]) it was 70.7683%; in test [2] (setting [5]), 132.305%; in test [3] (setting [4]), 65.7439%; in test [3] (setting [5]), 132.411%.

As for `CC(C)(C#Cc1ccc(NC(=O)COc2ccccc2C(=O)c2ccccc2)c(Cl)c1)C(=O)O` [BI 2439], the “Cell Viability” value was 66.7268% in test [1] (setting [4]); 62.0838% in test [1] (setting [5]); 97.1512% in test [2] (setting [4]); 131.731% in test [2] (setting [5]); 147.968% in test [3] (setting [4]); 100.148% in test [3] (setting [5]).

As for `CCCOc1ccn2c(C(C)=O)cc(-c3ccccc3S(C)(=O)=O)c2c1`, the “Cell Viability” value came out at 92.2028% in test [1] (setting [4]); 99.133% in test [1] (setting [5]); 121.922% in test [2] (setting [4]); 129.269% in test [2] (setting [5]); 150.252% in test [3] (setting [4]); 117.742% in test [3] (setting [5]).

`CNC(=N)NCCC[C@H](NC(=O)[C@H](CC(C)C)NC(=O)NNC(=O)[C@H](Cc1ccccc1)NC(=O)[C@H](CO)NC(=O)[C@H](CC(N)=O)NC(=O)[C@@H](Cc1ccncc1)NC(=O)[C@H](N)Cc1ccc(O)cc1)C(=O)N[C@@H](Cc1ccccc1)C(N)=O` [KISS1-305] (H-[dY][d4Pal]NSF[azaGly]L[Arg(Me)]F-NH2): the “Cell Viability” value in test [1] (setting [4]) came to 102.723%; in test [1] (setting [5]) it was 96.9932%; in test [2] (setting [4]), 113.14%; in test [2] (setting [5]), 104.585%; in test [3] (setting [4]) it was 118.72%; in test [3] (setting [5]), 125.679%.

Take `FC(F)(F)c1ccc2c(c1)nc(-c1cccnc1)n2C1CC1` [MSD-CYP11B2-Negative-control]: the “Cell Viability” value in test [1] (setting [4]) is listed as 73.196%; in test [1] (setting [5]), 81.5774%; in test [2] (setting [4]), 103.115%; in test [2] (setting [5]) it was 83.1787%; in test [3] (setting [4]), 98.4614%; in test [3] (setting [5]), 114.7%.
